{"source": "patent US4179337A", "about": "“Non-immunogenic polypeptides” (priority 1977, dated 1979)", "key": {"[1]": {"test_system": "rabbit antiserum after immunization with catalase", "assay": "Gel diffusion test for precipitating antibodies", "assay_type": "binding", "settings": "antiserum against native catalase, tested undiluted and 1/10", "protocol": "(§1) Immunization - New Zealand, white adult female rabbits were immunized by the intravenous route with a 1.5 mg/ml. stock solution of beef liver catalase for a period of 4 weeks by which time it received a total of 55 mg. of catalase. Rabbits were bled by cardiac puncture 7 and 14 days after completion of the immunization schedule. Approximately 1 month later, rabbits were injected with 5 mg. of the appropriate antigen and bled by cardiac puncture 1 week after receiving the booster injection.\n(§2) Rabbit antisera obtained after initial or booster immunization were assayed in vitro for precipitating (1) and complement fixing activities (2,3). Each antiserum (undiluted, 1/10, 1/50) was set up in gel diffusion plates (1.0% Noble Agar in physiological saline with 1.0% azide added as preservative) against both catalase and PEG-HTA-catalase solutions (concentrations ranging from 1000γ/ml. to 5γ/ml). Plates were incubated at room temperature for 48 hours and at 4° C. for 3-4 days. Complement fixing activity of the heat inactivated, sheep red blood cell absorbed antisera was determined using the Microtiter Complement-fixation test (Cooke Engineering Co., Alexandria, Virginia). Antisera were run 1:1 and 1:10 dilutions against catalse and PEG-HTA-catalase dilutions ranging from 1000γ/ml. down to 15γ/ml. Plates were read for presence or absence of hemolysis following incubation at 37° C. for 30 minutes."}, "[2]": {"test_system": "rabbit antiserum after immunization with catalase", "assay": "Microtiter complement-fixation test", "assay_type": "binding", "settings": "initial and booster sera", "protocol": "as §1, §2"}, "[3]": {"test_system": "rats made diabetic utilizing alloxan injections", "assay": "PEG insulin rat assay, alloxan diabetic rats", "assay_type": "in vivo", "parameters": "% Drop Over Control: concentration or dose not given beside the values"}, "[4]": {"assay": "Insulin activity (animal assay)", "settings": "in vivo"}, "insulin antiserum": {"test_system": "insulin antiserum", "assay": "PEG-insulin immunoassay (radioimmunoassay)", "assay_type": "binding", "protocol": "PEG-HTA-Insulin was prepared in accordance with Example II and tested for antigenic activity by the method of […]"}, "test rabbits": {"test_system": "test rabbits", "assay": "PEG-HTA-insulin assay, blood sugar levels in test rabbits (Glucostat method)", "assay_type": "in vivo, rabbit", "settings": "after 3 hours, same amount of insulin injected", "protocol": "Preliminary insulin and PEG-HTA-insulin containing the same amount of insulin were injected into test rabbits and blood sugar levels measured by the \"Glucostat\" method (Worthington Biochemical Corporation, Freehold, N. J.)."}, "[5]": {"settings": "intravenous, 8 hrs (animals fed after 5 hrs)"}}}
{"substance": "Hydrogen Peroxide: Hydrogen-Peroxide Oxidoreductase (1.11.1.6; \"Catalase\")-2-PEG-4-Hydroxy-1,3,5-Triazin-6-yl Conjugate [modified catalase]", "values": [{"measurement": "precipitating antibodies, gel diffusion", "setting": "[1]", "value": "no evidence of any cross-reactions"}, {"measurement": "complement-fixing activity", "setting": "[2]", "value": "negative"}]}
{"substance": "Hydrogen-peroxide: hydrogen-peroxide oxidoreductase [Unmodified catalase]", "values": [{"measurement": "precipitating antibodies, gel diffusion", "setting": "[1]", "value": "positive"}, {"measurement": "complement-fixing activity", "setting": "[2]", "value": "positive"}]}
{"substance": "Insulin PEG-4-Hydroxy-1,3,5-Triazin-6-yl Conjugate [PEG HTA Insulin (pH 9.2)]", "values": [{"measurement": "Blood Glucose Level", "setting": "[3]; intravenous, 0 hrs (initial level)", "value": 305, "unit": "mg/100 ml."}, {"measurement": "% Drop Over Control", "setting": "[3]; intravenous, 2 hrs", "value": 76.2, "unit": "%"}, {"measurement": "Blood Glucose Level", "setting": "[3]; intravenous, 2 hrs", "value": 72.5, "unit": "mg/100 ml."}, {"measurement": "Drop Over Initial Level", "setting": "[3]; intravenous, 2 hrs", "value": 232, "unit": "mg/100 ml"}, {"measurement": "% Drop Over Control", "setting": "[3]; intravenous, 4 hrs", "value": 66.7, "unit": "%"}, {"measurement": "Blood Glucose Level", "setting": "[3]; intravenous, 4 hrs", "value": 101.5, "unit": "mg/100 ml."}, {"measurement": "Drop Over Initial Level", "setting": "[3]; intravenous, 4 hrs", "value": 203.5, "unit": "mg/100 ml"}, {"measurement": "% Drop Over Control", "setting": "[3]; [5]", "value": 24.6, "unit": "%"}, {"measurement": "Blood Glucose Level", "setting": "[3]; [5]", "value": 230, "unit": "mg/100 ml."}, {"measurement": "Drop Over Initial Level", "setting": "[3]; [5]", "value": 75, "unit": "mg/100 ml"}]}
{"substance": "insulin [Unmodified Insulin]", "values": [{"measurement": "Insulin Activity (animal assay)", "setting": "[4]", "value": 137, "unit": "μ units/ml."}, {"measurement": "Insulin Antibodies Activity (radioimmunoassay)", "setting": "insulin antiserum", "value": 127, "unit": "μ units/ml."}, {"measurement": "Blood Glucose Level", "setting": "test rabbits", "value": "20 % of normal"}, {"measurement": "Blood Glucose Level", "setting": "[3]; intramuscularly, 0 hrs (initial level)", "value": 410, "unit": "mg/100 ml."}, {"measurement": "% Drop Over Control", "setting": "[3]; intramuscularly, 1 hr", "value": 32.9, "unit": "%"}, {"measurement": "Blood Glucose Level", "setting": "[3]; intramuscularly, 1 hr", "value": 295, "unit": "mg/100 ml."}, {"measurement": "Drop Over Initial Level", "setting": "[3]; intramuscularly, 1 hr", "value": 135, "unit": "mg/100 ml"}, {"measurement": "% Drop Over Control", "setting": "[3]; intramuscularly, 2 hrs", "value": 34.1, "unit": "%"}, {"measurement": "Blood Glucose Level", "setting": "[3]; intramuscularly, 2 hrs", "value": 270, "unit": "mg/100 ml."}, {"measurement": "Drop Over Initial Level", "setting": "[3]; intramuscularly, 2 hrs", "value": 140, "unit": "mg/100 ml"}, {"measurement": "% Drop Over Control", "setting": "[3]; intramuscularly, 4 hrs", "value": 29.2, "unit": "%"}, {"measurement": "Blood Glucose Level", "setting": "[3]; intramuscularly, 4 hrs", "value": 290, "unit": "mg/100 ml."}, {"measurement": "Drop Over Initial Level", "setting": "[3]; intramuscularly, 4 hrs", "value": 120, "unit": "mg/100 ml"}, {"measurement": "% Drop Over Control", "setting": "[3]; intramuscularly, 6 hrs", "value": "02.4", "unit": "%"}, {"measurement": "Blood Glucose Level", "setting": "[3]; intramuscularly, 6 hrs", "value": 400, "unit": "mg/100 ml."}, {"measurement": "Drop Over Initial Level", "setting": "[3]; intramuscularly, 6 hrs", "value": 10, "unit": "mg/100 ml"}]}
